A short description of experiment [1]: Inhibition of HSP70 by fluorescence polarization assay. On the technique in general: Fluorescence polarisation rises when a labelled molecule tumbles more slowly, as on binding a larger partner.
The subject of experiment [2] is HCT-116. As to the kind of experiment: Antiproliferative activity against human HCT116 cells. The experiment is classed as functional.

Where only a bound is given, the exact number is not on record here.

The text below walks through data of ChEMBL document CHEMBL1781881, “Adenosine-derived inhibitors of 78 kDa glucose regulated protein (Grp78) ATPase: insights into isoform selectivity” (J Med Chem, 2011).

The term Ki denotes a dissociation constant, usually derived from enzyme kinetics or from competition with a known ligand. A high value points to lower affinity. A word on the GI50: it is the concentration at which growth is held to half of that of the control. Lower therefore signals more potent growth inhibition.

Compound `Nc1ncnc2c1nc(N)n2[C@@H]1O[C@H](CO)[C@@H](O)[C@H]1O` returned a Ki in experiment [1] of 4460 nM. This compound also showed a 50% growth inhibitory concentration (GI50) in experiment [2] of 50 nM.

As to `Nc1ncnc2c1nc(NCc1ccc3ncccc3c1)n2[C@@H]1O[C@H](CO)[C@@H](O)[C@H]1O`, the Ki in experiment [1] was found to be 1290 nM. Also, in experiment [2], the GI50 is above 80000 nM.

For the compound `N#Cc1ccc(COC[C@H]2O[C@@H](n3c(NCc4ccc(Cl)c(Cl)c4)nc4c(N)ncnc43)[C@H](O)[C@@H]2O)cc1`, the affinity in experiment [1], expressed as Ki, was 120 nM. In experiment [2], this compound yielded a GI50 of 5000 nM.

`CNc1nc2c(N)ncnc2n1[C@@H]1O[C@H](COCC2CCCCC2)[C@@H](O)[C@H]1O`: the Ki in experiment [1] worked out at 4070 nM.

As to `CNc1nc2c(N)ncnc2n1[C@@H]1O[C@H](CO)[C@@H](O)[C@H]1O`, the inhibition constant (Ki) in experiment [1] was 8300 nM.

In turn, `Nc1ncnc2c1ncn2[C@@H]1O[C@H](COP(=O)(O)OP(=O)(O)O)[C@@H](O)[C@H]1O` [ADENOSINE DIPHOSPHATE] displayed a Ki in experiment [1] of 110 nM.

In experiment [1], `COC[C@H]1O[C@@H](n2c(NCc3ccc(Cl)c(Cl)c3)nc3c(N)ncnc32)[C@H](O)[C@@H]1O` had an inhibition constant Ki of 1440 nM.

`CNc1nc2c(N)ncnc2n1[C@@H]1O[C@H](COCc2ccccc2)[C@@H](O)[C@H]1O` came in with an inhibition constant Ki in experiment [1] of 1100 nM.

The compound `Nc1ncnc2c1nc(NCc1ccc(Cl)c(Cl)c1)n2[C@@H]1O[C@H](COCc2ccccc2)[C@@H](O)[C@H]1O` returned a Ki in experiment [1] of 1050 nM.

Consider `CNc1nc2c(N)ncnc2n1[C@@H]1O[C@H](COCc2cccnc2)[C@@H](O)[C@H]1O`, for which, in experiment [1], the Ki came to 450 nM.

Compound `Nc1ncnc2c1nc(NCc1ccc(Cl)c(Cl)c1)n2[C@@H]1O[C@H](CO)[C@@H](O)[C@H]1O` had a Ki in experiment [1] of 4310 nM. Further, the concentration for 50% growth inhibition (GI50) in experiment [2] came to 26000 nM.

In turn, `N#Cc1ccc(COC[C@H]2O[C@@H](n3c(NCc4ccc5ncccc5c4)nc4c(N)ncnc43)[C@H](O)[C@@H]2O)cc1` displayed a Ki in experiment [1] of 310 nM. Besides, the GI50 in experiment [2] was above 80000 nM.

For the compound `Nc1ncnc2c1nc(NCc1ccc3ccccc3n1)n2[C@@H]1O[C@H](CO)[C@@H](O)[C@H]1O`, in experiment [1], the Ki is 4320 nM.
